Values of other authors, collected in patent publication US11864558B2, “Herbicidal compositions containing N-phosphonomethyl glycine and an auxin herbicide” (Monsanto Technology LLC, priority 2004, dated 2024).

Conditions: acid form; 25° C.

For `O=C(O)CNCP(=O)(O)O` [glyphosate, N-phosphonomethylglycine], the solubility in water is listed as 1.16 % by weight.
